Reference: ChEMBL document CHEMBL5107976, “Chalcone-amide, a privileged backbone for the design and development of selective SARS-CoV/SARS-CoV-2 papain-like protease inhibitors” (Eur J Med Chem, 2022)
In brackets after ≈: the same amount, converted by molar mass.

Legend:
SARS-CoV-2 [1] = assay: Antiviral activity against SARS-CoV-2 infected in human Caco-2 cells expressing hACE2 assessed as reduction in virus replication; assay type: functional, organism-based; details: Severe acute respiratory syndrome coronavirus 2, Caco-2
[2] = molecular target: T1, Replicase polyprotein 1ab (Severe acute respiratory syndrome coronavirus 2, UniProt P0DTD1); assay: Inhibition of C-terminal His-tagged SARS-CoV-2 PLpro BetaCoV/Wuhan/WIV04/2019 strain (1564 to 1876 residues) expressed in Escherichia coli BL21(DE3) using FRET substrate measured after 3 hrs by enzymatic assay
[3] = Inhibition of SARS-CoV PLpro using Z-Arg-Leu-Arg-Gly-Gly-AMC acetate as substrate by fluorometric assay; design: species or system Severe acute respiratory syndrome-related coronavirus
Human rhinovirus sp. = assay: Antiviral activity against HRV infected in human HeLa cells assessed as inhibition in virus replication by plaque assay; assay type: functional, organism-based
[4] = Cytotoxicity against African green monkey Vero E6 cells assessed as reduction in cell viability; assay type: toxicity, cell-based, Vero C1008; details: chlorocebus sabaeus
SARS-CoV-2 [5] = assay: Antiviral activity against SARS-CoV-2 infected in African green monkey Vero E6 cells assessed as reduction in viral replication at MOI of 0.5 incubated for 23 hrs by plaque assay; assay type: functional, organism-based; details: Severe acute respiratory syndrome coronavirus 2, Vero C1008, 23 h
SARS-CoV-2 [6] = assay: Antiviral activity against SARS-CoV-2 infected in human Caco-2 cells expressing hACE2 assessed as reduction in virus replication incubated for 48 hrs by Western blot analysis; assay type: functional, organism-based; details: Severe acute respiratory syndrome coronavirus 2, Caco-2, 48 h
[7] = Inhibition of SARS-CoV PLpro (1541 to 1855 residues) using RLRGG-AMC as substrate preincubated for 5 mins followed by substrate addition measured after 6 mins by fluorescence based assay; design: species or system Severe acute respiratory syndrome-related coronavirus
[8] = molecular target: T1, Replicase polyprotein 1ab; assay: Inhibition of SARS-CoV-2 PLpro

Work on `Cc1ccc(N)cc1CN(C)[C@H](C)c1cccc2ccccc12` yielded an EC50 (SARS-CoV-2 [1]) of 8.89 µM and an IC50 [2] of 0.99 µM.
With `Cc1ccc(N)cc1C(=O)N[C@H](C)c1cccc2ccccc12` the EC50 (SARS-CoV-2 [1]) was 25.1 µM.
`C[C@H](c1cccc2ccccc12)N1Cc2ccc(N)cc2C1` showed an IC50 [3] of 4.9 µM.
Work on `COc1ccc(CNC(=O)c2c(O)cc(OCC=C(C)C)cc2OC)cc1` yielded an IC50 (Human rhinovirus sp.) of 0.0072 µg/mL (≈ 0.0194 µM).
In the case of `CCOc1cc(O)c(C(=O)/C=C/c2ccc(OC)cc2)c(OC)c1`, the IC50 (Human rhinovirus sp.) is reported as 0.045 µg/mL (≈ 0.137 µM).
`Cc1cc(NS(C)(=O)=O)ccc1C(=O)N[C@H](C)c1cccc2ccccc12` gave an IC50 [3] of 4.8 µM.
For `C[C@H](c1cccc2ccccc12)N(C)Cc1ccc(O)cc1`, the EC50 (SARS-CoV-2 [1]) was 8.32 µM.
Compound `C[C@H](c1cccc2ccccc12)N1Cc2ccccc2C1` has a CC50 [4] of 442 µM, an IC50 [3] of 2.9 µM and an EC50 (SARS-CoV-2 [5]) of 7.85 µM.
Work on `C[C@H](c1cccc2ccccc12)N1Cc2ccc(O)cc2C1` yielded an IC50 [3] of 4.5 µM.
In the case of `C[C@H](c1cccc2ccccc12)N1CCC(C(=O)NCc2cc(F)cc(NC(=O)N3CCN(C)CC3)c2)CC1`, the EC50 (SARS-CoV-2 [6]) is reported as 0.18 µM.
`COc1ccc(CNC(=O)C2CCN(Cc3cccc4ccccc34)CC2)cc1` gave an IC50 [7] of 59.2 µM.
For `Cc1cc(N)ccc1C(=O)N[C@H](C)c1cccc2ccccc12`, the CC50 [4] was greater than 500 µM, the IC50 [3] was 1.2 µM and the EC50 (SARS-CoV-2 [5]) was 15.8 µM.
For `Cc1ccsc1C(=O)N[C@H](C)c1cccc2ccccc12`, the CC50 [4] was greater than 500 µM, the IC50 [3] was 14 µM and the EC50 (SARS-CoV-2 [5]) was 4.74 µM.
Work on `C[C@@H](NC(=O)c1ccccc1Cl)c1cccc2ccccc12` yielded a CC50 [4] of 376 µM, an IC50 [3] of 6.5 µM and an EC50 (SARS-CoV-2 [5]) of 1.77 µM.
For `Cc1ccc(N(C)C)cc1C(=O)N[C@H](C)c1cccc2ccccc12`, the IC50 [3] was 4 µM.
`CCOc1cc(O)c(C(=O)NCc2ccc(OC)cc2)c(OC)c1` gave an IC50 (Human rhinovirus sp.) of 0.014 µg/mL (≈ 0.0422 µM).
For `C[C@H](c1cccc2ccccc12)N1CCC(C(=O)NCc2cccc(NC(=O)N3CCN(C)CC3)c2)CC1`, the EC50 (SARS-CoV-2 [6]) was 0.6 µM.
Work on `C[C@H](c1cccc2ccccc12)N1CCC(C(=O)NCc2cc(F)cc(NC(=O)CN(C)C)c2)CC1` yielded an EC50 (SARS-CoV-2 [6]) of 0.22 µM.
`CCOc1cc(O)c(C(=O)NCc2ccc(NC)cc2)c(OC)c1` showed an IC50 (Human rhinovirus sp.) of 0.022 µg/mL (≈ 0.0666 µM).
In the case of `CNS(=O)(=O)c1ccc(C)c(C(=O)N[C@H](C)c2cccc3ccccc23)c1`, the IC50 [3] is reported as 4 µM.
For `COc1cc(O)ccc1CN(C)[C@H](C)c1cccc2ccccc12`, the IC50 [2] was 0.58 µM.
`Cc1ccc(NC2CNC2)cc1C(=O)N[C@H](C)c1cccc(-c2ccc(CNC[C@H]3CCCO3)s2)c1` gave an IC50 [8] of 0.76 µM.
